These are literature values, as cited in article PMC8679620, “Receptor-Targeted Photodynamic Therapy of Glucagon-Like Peptide 1 Receptor–Positive Lesions” (Journal of Nuclear Medicine, 2020).

Structures are written as SMILES.

For the series the following is noted: at 689 nm; ref [12],[17]. The text has this:
Exendin-4-IRDye700DX was supplied by piCHEM. IRDye700DX NHS ester was obtained from LI-COR Biosciences.

In the case of `C[Si](C)(CCC[N+](CCCS(=O)(=O)[O-])(CCCS(=O)(=O)[O-])CCCS(=O)(=O)[O-])O[Si]1(O[Si](C)(C)CCC[N+](CCCS(=O)(=O)[O-])(CCCS(=O)(=O)[O-])CCCS(=O)(=O)[O-])n2c3c4ccccc4c2N=C2N=C(N=c4c5ccccc5c(n41)=NC1=NC(=N3)c3ccccc31)c1cccc(OCCCOC(=O)NCCCCCC(=O)ON3C(=O)CCC3=O)c12.[Na+].[Na+].[Na+].[Na+]` (stereo not shown) [IRDye700DX], the extinction coefficient is 210000 M⁻¹ cm⁻¹.
